According to PMC2783557 (Brain, behavior, and immunity, 2009):

Experiments:
Tg2576 mice = details: chronic treatment from 8-15 months of age, ref Sheng et al., 2003; cited from earlier work
Male CD-1 mice = test: Brain uptake; assay type: in vivo, mouse; details: indomethacin 20 mg/kg ip 30 min before LPS 3 mg/kg; n = 6-8/group

Structure (SMILES): COc1ccc2c(c1)c(CC(=O)O)c(C)n2C(=O)c1ccc(Cl)cc1 [Indomethacin]
- levels of soluble Aβ40 and Aβ42 in the hippocampus and cortex (Tg2576 mice): significantly reduce
- effect of LPS on brain uptake (influx) of I-Aβ (Male CD-1 mice): did not reverse
